# Laboratory results taken from PMC3673949, “Small Molecule R1498 as a Well-Tolerated and Orally Active Kinase Inhibitor for Hepatocellular Carcinoma and Gastric Cancer Treatment via Targeting Angiogenesis and Mitosis Pathways” (PLoS ONE, 2013).
# Like-named read-outs stand apart in the source and are kept apart here.
# Key:
# [1] = test system: BGC-823 xenograft; test: Xenograft efficacy study; assay type: in vivo, BALB/C nu/nu nude mice
# [2] = test system: CNE-2 xenograft
# Source text: The use and care of experimental animal was approved by Institutional Animal Care and Use Committee, Roche R&D Center (China). Tumor cells were inoculated into the right flank of BALB/C nu/nu female nude mice (5∼6 weeks, 16∼18 g, obtained from Sino-British SIPPR/BK Lab. Animal Ltd, Shanghai, China) at optimal density based on our in-house validation study. After the tumor was established and reached 100∼150 mm^3, the mice were randomized into ten mice per group and received treatment according to the schedule. The tumor growth was recorded three times a week with the measurement of length (L) and width (W) by caliper, and calculated as tumor volume (TV, mm^3) = 0.5*L*W*W (mm). […] The tumor regression of individual mouse was defined - the tumor volume at the end was less than the tumor volume when treatment was initiated.
# [3] = Metabolite profile in pooled liver microsomes; assay type: in vitro ADME
# Experimental: Supplementary file pone.0065264.s005.doc: Table S4 Metabolite profiles in pooled liver microsomes. Pooled liver microsomes were incubated with R1498 and the metabolites were identified to predict the most close species to human. (DOC) Click here for additional data file.
# [4] = test system: SGC-7901 xenograft; test: Xenograft efficacy study; assay type: in vivo, BALB/C nu/nu nude mice
# [5] = test system: GC46 xenograft; test: Patient primary gastric tumor derived xenograft; assay type: in vivo, BALB/C nu/nu nude mice; settings: GC46, 25 mpk bid, p.o.
# Experimental: (§1) In human primary tumor models, fresh human gastric tumor tissues were directly implanted into nonobese diabetic and severe combined immune-deficient (NOD-SCID) mice within 5 hours post-surgery with 5 mm^3 fragments to establish primary tumor xenograft models. […] Treatment began when tumor volume reached 100∼150 mm^3. The tumor measurement and operation protocol was the same as cell line derived tumor model.
# [6] = test system: GC318 xenograft; test: Patient primary gastric tumor derived xenograft; assay type: in vivo, BALB/C nu/nu nude mice; settings: GC318, 25 mpk bid, p.o.
# Experimental: as §1
# [7] = test system: GC16 xenograft; test: Patient primary gastric tumor derived xenograft; assay type: in vivo, BALB/C nu/nu nude mice; settings: GC16, 25 mpk bid, p.o.
# Experimental: as §1
# [8] = test system: GC and HCC xenografts; test: Panel of GC and HCC xenografts, comparison with sorafenib; assay type: in vivo, BALB/C nu/nu nude mice
# [9] = test system: HUVEC (FBS stimulated); test: HUVEC proliferation in 10% FBS; assay type: cell-based; settings: Homo sapiens, 72 h
# Experimental: Each cell line was seeded in a 96-well tissue culture plate (Corning, NY) at a predetermined density in 180 µL complete medium, attached overnight and treated by compound for another 72 h. Then the medium was discarded and replaced with 10% CCK-8 (Dojindo, Kumamoto, Japan) in complete medium, then incubated the plates for another 2 h. The OD450 was measured with SpectraMAX 190 spectrophotometer (MDS, Sunnyvale, CA). A background absorbance of ODblank was subtracted from all wells.
# In VEGF-induced HUVEC proliferation assay, the HUVECs suspended in 170 µL EGM-2 with 0.5% FBS were seeded and incubated overnight. After the cells attached, 10 µL 1 µg/ml recombinant human VEGF 165 (R&D systems, Minneapolis, MN) was added to each well together with 20 µl compound solutions prepared in EGM-2 with 0.5% FBS. The CCK-8 assay as above was used for determination of cell viability.
# [10] = test system: tubulin; test: In vitro tubulin polymerization assay; assay type: biochemical; settings: 40 µM, OD340
# Experimental: In vitro tubulin polymerization assay was performed as described previously.
# [11] = test system: cyclin-dependent kinase 2 (CDK2); set-up: method as in PMID 20832307; settings: previously identified; cited from earlier work
# [12] = target: Aurora kinase A (Homo sapiens, UniProt O14965); test: Z'-Lyte kinase activity assay; assay type: biochemical; settings: mean of three independent experiments
# Experimental: (§2) The affinity of R1498 against 402 kinases was determined by KINOMEScan® (Ambit Biosciences, San Diego, CA) and data were presented as dissociation constant (Kd) values. The inhibition on kinase activity of Aurora kinases and VEGFR2 was further characterized by Z’-Lyte kinase activity assays under corresponding ATP concentrations.
# [13] = target: VEGFR2 (Homo sapiens, UniProt P35968); test: Z'-Lyte kinase activity assay; assay type: biochemical; settings: mean of three independent experiments
# Experimental: as §2
# [14] = target: Aurora kinase B (Homo sapiens, UniProt Q96GD4); test: Z'-Lyte kinase activity assay; assay type: biochemical; settings: mean of three independent experiments
# Experimental: as §2
# [15] = Single dose pharmacokinetic (SDPK) study; assay type: in vivo; settings: for Oral BA: micronized API suspension; for clearance / Vd / half-life: plasma; for clearance / Vd: iv, 5 mg/kg, single dose; for Vd: read-out: Vdss; for half-life: iv 5 mg/kg
# Experimental: Blood samples were collected by retro-orbital puncture at pre-dose and 0.033, 0.083, 0.25,0.5, 1, 2, 4, 6, 8, and 24 hours post-dose. The plasma samples and the dose formulation were stored at −20°C until bioanalysis. The data acquisition and control system were created using Analyst 1.4 software from ABI Inc. The concentrations in plasma below the limit of quantitation (LOQ = 1 ng/mL) were designated as zero. […] For rat, dog and monkey SDPK, the blood samples were collected from jugular vein puncture.
# Sequence of Aurora kinase B (Q96GD4 whole entry): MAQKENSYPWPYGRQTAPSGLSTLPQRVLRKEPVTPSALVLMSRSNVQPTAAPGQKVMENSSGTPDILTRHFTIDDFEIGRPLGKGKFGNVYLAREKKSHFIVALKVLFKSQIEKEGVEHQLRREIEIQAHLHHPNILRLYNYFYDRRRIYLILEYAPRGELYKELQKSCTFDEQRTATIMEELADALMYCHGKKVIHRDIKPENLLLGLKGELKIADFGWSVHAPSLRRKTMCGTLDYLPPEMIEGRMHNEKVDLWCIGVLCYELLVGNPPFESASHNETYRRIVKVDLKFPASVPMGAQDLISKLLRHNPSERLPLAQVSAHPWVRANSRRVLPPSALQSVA
# Sequence of Aurora kinase A (O14965 whole entry): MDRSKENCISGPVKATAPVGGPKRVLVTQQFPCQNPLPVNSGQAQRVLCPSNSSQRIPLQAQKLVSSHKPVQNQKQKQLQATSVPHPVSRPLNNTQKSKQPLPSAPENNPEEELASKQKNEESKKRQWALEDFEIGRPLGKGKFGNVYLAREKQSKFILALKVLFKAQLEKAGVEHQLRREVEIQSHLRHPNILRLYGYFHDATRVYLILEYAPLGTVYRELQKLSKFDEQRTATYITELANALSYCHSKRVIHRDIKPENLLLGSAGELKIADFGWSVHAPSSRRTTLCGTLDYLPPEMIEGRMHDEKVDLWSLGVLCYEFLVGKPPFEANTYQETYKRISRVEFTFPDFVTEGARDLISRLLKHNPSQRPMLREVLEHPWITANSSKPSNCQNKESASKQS
# Sequence of VEGFR2 (P35968 20-1356): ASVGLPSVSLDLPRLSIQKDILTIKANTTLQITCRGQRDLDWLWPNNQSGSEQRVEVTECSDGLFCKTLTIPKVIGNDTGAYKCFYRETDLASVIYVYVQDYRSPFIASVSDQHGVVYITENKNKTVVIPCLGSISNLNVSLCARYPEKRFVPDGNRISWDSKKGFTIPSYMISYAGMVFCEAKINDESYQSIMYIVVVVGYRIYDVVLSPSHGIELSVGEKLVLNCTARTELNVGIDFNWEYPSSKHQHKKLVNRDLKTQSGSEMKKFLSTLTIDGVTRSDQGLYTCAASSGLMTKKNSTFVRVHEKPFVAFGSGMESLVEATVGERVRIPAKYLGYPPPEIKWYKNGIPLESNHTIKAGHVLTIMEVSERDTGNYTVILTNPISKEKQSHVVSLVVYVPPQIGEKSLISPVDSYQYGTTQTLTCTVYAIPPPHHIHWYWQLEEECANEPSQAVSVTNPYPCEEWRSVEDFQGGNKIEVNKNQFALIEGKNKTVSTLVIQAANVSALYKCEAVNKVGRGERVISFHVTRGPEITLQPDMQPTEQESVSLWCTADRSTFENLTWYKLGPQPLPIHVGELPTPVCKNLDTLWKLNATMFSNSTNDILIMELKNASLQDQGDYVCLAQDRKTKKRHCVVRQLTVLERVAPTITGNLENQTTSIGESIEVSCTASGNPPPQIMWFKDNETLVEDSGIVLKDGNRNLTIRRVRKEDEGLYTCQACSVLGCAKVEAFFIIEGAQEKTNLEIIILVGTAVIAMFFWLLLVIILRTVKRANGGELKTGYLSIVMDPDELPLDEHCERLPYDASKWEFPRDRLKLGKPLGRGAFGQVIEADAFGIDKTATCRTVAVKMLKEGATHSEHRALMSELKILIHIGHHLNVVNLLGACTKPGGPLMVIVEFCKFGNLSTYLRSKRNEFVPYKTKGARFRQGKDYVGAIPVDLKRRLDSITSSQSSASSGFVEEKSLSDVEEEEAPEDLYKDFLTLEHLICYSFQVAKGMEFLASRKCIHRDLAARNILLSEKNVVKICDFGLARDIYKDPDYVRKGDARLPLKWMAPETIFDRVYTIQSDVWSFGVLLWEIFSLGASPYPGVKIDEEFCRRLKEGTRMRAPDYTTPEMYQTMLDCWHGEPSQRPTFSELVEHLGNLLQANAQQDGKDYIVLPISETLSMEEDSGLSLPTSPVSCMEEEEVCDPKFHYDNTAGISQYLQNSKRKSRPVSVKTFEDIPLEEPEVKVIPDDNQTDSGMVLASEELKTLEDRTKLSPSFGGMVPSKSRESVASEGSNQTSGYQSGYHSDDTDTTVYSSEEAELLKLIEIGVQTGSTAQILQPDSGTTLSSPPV
compound,measurement,setting,value
COc1ccc2c(c1)C(c1ccccc1Cl)=Nc1c(n[nH]c1C)N2 [R1498],Final TGI%,"[1]; BGC-823, 25 mg/kg twice a day per oral gavage, day of study termination (Table S2)",94%
same,Body weight changes%,"[1]; BGC-823, 25 mg/kg twice a day per oral gavage, before vs after treatment",2%
same,Tumor Regression,"[1]; BGC-823, 25 mg/kg twice a day per oral gavage, mice with regression/group",0/10
same,Final TGI%,"[1]; BGC-823, 6.25 mpk, bid, PO",78%
same,Final TGI%,"[1]; BGC-823, 12.5 mpk, bid, PO",88%
same,Final TGI%,"[1]; BGC-823, 25 mpk, bid, PO (Table S3)",94%
same,Body weight changes%,"[2]; CNE-2, 25 mg/kg twice a day per oral gavage, before vs after treatment",16.3%
same,Tumor Regression,"[2]; CNE-2, 25 mg/kg twice a day per oral gavage, mice with regression/group",0/10
same,Final TGI%,"[2]; CNE-2, 25 mg/kg twice-daily per oral gavage, day of study termination",90%
same,Parent (M0),[3]; Dog pooled liver microsomes,99.0
same,Total M%,[3]; Dog pooled liver microsomes,1.0%
same,Parent (M0),[3]; Human pooled liver microsomes,91.9
same,Total M%,[3]; Human pooled liver microsomes,8.1%
same,Parent (M0),[3]; Monkey pooled liver microsomes,43.3
same,Total M%,[3]; Monkey pooled liver microsomes,56.7%
same,Parent (M0),[3]; Mouse pooled liver microsomes,94.8
same,Total M%,[3]; Mouse pooled liver microsomes,5.2%
same,Parent (M0),[3]; Rat pooled liver microsomes,90.8
same,Total M%,[3]; Rat pooled liver microsomes,9.2%
same,Final TGI%,"[4]; SGC-7901, 25 mg/kg twice a day per oral gavage, day of study termination (Table S2)",100%
same,Body weight changes%,"[4]; SGC-7901, 25 mg/kg twice a day per oral gavage, before vs after treatment",2%
same,Tumor Regression,"[4]; SGC-7901, 25 mg/kg twice a day per oral gavage, mice with regression/group",5/10
same,Final TGI%,"[4]; SGC-7901, 6.25 mpk, bid, PO",69%
same,Final TGI%,"[4]; SGC-7901, 12.5 mpk, bid, PO",83%
same,Regression,[5],2/10
same,TGI%,[5],73.6%
same,Regression,[6],1/10
same,TGI%,[6],91.6%
same,Regression,[7],3/10
same,TGI%,[7],89.3%
same,tumor growth inhibition,[8]; all test models (GC and HCC xenografts),> 80%
same,TGI% over TGI% of sorafenib,"[8]; gastric cancer xenografts, same schedule",2–12%
same,TGI% more than TGI% of sorafenib,"[8]; hepatocarcinoma xenografts, same schedule",10–19%
same,IC50,[9],2060 nM
same,effect on microtubule polymerization,[10],neither stabilized nor destabilized microtubule polymerization
same,CDK2 inhibition,[11],weak
same,IC50,[12],67 ± 4 nM
same,IC50,[13],25 ± 6 nM
same,IC50,[14],167 ± 13 nM
same,Oral BA,"[15]; Dog, 50-100 mg/kg",32-45 (50-100 mg/kg) %
same,Oral BA,"[15]; Monkey, 12.5 mg/kg",4 (12.5 mg/kg) %
same,Oral BA,"[15]; Rat, 25-400 mg/kg",9-44 (25-400 mg/kg) %
same,clearance,[15]; Dog,1.9 mL/min/kg
same,Vd,[15]; Dog,2.7 L/kg
same,clearance,[15]; Monkey,25.3 mL/min/kg
same,Vd,[15]; Monkey,2.1 L/kg
same,clearance,[15]; Rat,5.6 mL/min/kg
same,Vd,[15]; Rat,1.6 L/kg
same,half-life,[15]; Dog,16.8 h
same,half-life,[15]; Monkey,1.5 h
same,half-life,[15]; Rat,3.2 h
